Columns and labels:
[1] = test system: B16F1 mouse melanoma cells; test: Melanogenesis inhibition in α-MSH stimulated B16F1 cells (melanin at 405 nm); assay type: cell-based; settings: EAA alone, 72 hours
Experimental: The intracellular melanin in B16F1 mouse melanoma cells is extracted by 1N NaOH. The brown colored melanin thus extracted is estimated at 405 nm. The synthesis of melanin is inhibited in the presence of inhibitor which results in reduced absorbance at 405 nm.
MSH Stock was prepared at 1 mg/ml in distilled water. MSH at a final concentration of 1 nM was used to stimulate melanogenesis
B16F1 mouse melanoma cells were cultured for 24 hours in a 96 well microtiter plate at a seeding density of 5000 cells per well. Cells are treated with varying non cytotoxic concentrations of the sample over a period of 72 hours along with melanin stimulating hormone (∝-MSH) to induce the synthesis of melanin pigment. Untreated cells and cells without ∝-MSH addition were used as positive and negative control. The melanin produced by the cells was extracted by 1N NaOH and the absorbance was read at 405 nm in a Microplate reader. The inhibitory effect of the sample is calculated based on the degree of inhibition of melanin formation.
The results are expressed as IC50 values using Graph pad prism software. The percentage of inhibition of melanin is calculated as follows,
[formula] Where C-absorbance due to melanin in untreated cells
T-absorbance due to melanin in sample treated cells

Mushroom Tyrosinase = target: T1, Mushroom Tyrosinase (Agaricus bisporus, UniProt C7FF04); test: Tyrosinase inhibition assay (L-Tyrosine substrate, absorbance at 492 nm); assay type: biochemical; settings: EAA alone
T1 construct: purchased Sigma
T1 sequence (C7FF04 1-392 limits assumed): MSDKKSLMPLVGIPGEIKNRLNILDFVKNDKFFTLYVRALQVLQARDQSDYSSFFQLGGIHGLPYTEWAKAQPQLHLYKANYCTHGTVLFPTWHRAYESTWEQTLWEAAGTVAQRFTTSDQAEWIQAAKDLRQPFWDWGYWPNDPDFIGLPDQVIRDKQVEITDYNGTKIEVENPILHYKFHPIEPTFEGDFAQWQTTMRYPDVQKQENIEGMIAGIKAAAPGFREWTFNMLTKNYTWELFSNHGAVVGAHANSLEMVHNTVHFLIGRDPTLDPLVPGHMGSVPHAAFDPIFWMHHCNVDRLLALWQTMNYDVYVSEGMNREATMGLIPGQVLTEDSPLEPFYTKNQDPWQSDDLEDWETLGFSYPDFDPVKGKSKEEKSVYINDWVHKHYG
Experimental: Tyrosinase acts on L-Tyrosine forming a pink colored complex, the intensity of which is measured at 492 nm. The Tyrosinase activity in the presence and absence of inhibitor is assayed spectrophotometrically at 492 nm using a Microplate reader.
Mushroom Tyrosinase enzyme is prepared by dissolving entire content in […], pH 6.5 pre-chilled enzyme buffer to get […]. Gentle shaking for five minutes aids in dissolution of enzyme. Aliquot the stock into vials of 100 μl each and keep at −80° until use for at least 2 months. Multiple freeze-thaw cycles of the enzyme must be avoided.
A stock of 2.50 mM L-Tyrosine Disodium salt (Sigma) is prepared in 1.5 mM phosphate buffer (pH 6.5) by dissolving 2.845 mg/5 ml.
Samples were dissolved in DMSO and further dilutions were carried out in buffer
The assay was performed in a 96 well clear microtitre plate. Different concentrations of the composition comprising ethyl-ascorbic acid and tetrahydrocurcuminoids were pre incubated with 10 μl of […] stock Solution of Mushroom Tyrosinase (f.c. 6 U/well) at 37° C. for 10 minutes. The reaction is initiated by adding 2.5 mM L-Tyrosine disodium and the absorbance is read immediately every minute until 15 minutes using the microplate reader at 492 nm. A test blank well was prepared for each sample without the enzyme. Enzyme reaction with vehicle alone served as a control for enzyme activity. Kojic acid was used as a positive control.
The results are expressed as IC50 values using Graphpad prism software. The percentage of inhibition of melanin is calculated as follows,
Where C-absorbance in control and T-absorbance in test sample

% Inhibition of tyrosinase activity (Mushroom Tyrosinase; 62.5 μg/ml): Nil | % Inhibition of tyrosinase activity (Mushroom Tyrosinase; 125 μg/ml): Nil | inhibition at 250 µg/mL (Mushroom Tyrosinase; 250 μg/ml): 11.6% | inhibition at 500 µg/mL (Mushroom Tyrosinase; 500 μg/ml): 28.3%
Compound: CCOC1=C(O)C(=O)O[C@@H]1[C@@H](O)CO [Ethyl-ascorbic acid (EAA), 3-O-ethyl-ascorbic acid]
% Inhibition of melanogenesis ([1]; 0.625 μg/ml): Nil | % Inhibition of melanogenesis ([1]; 0.625 μg/ml, listed as ethyl-ascorbic acid): did not show any melanogenesis inhibition | % Inhibition of melanogenesis ([1]; 1.25 μg/ml): Nil

Reference: patent US10864154B2, “Skin care compositions and their applications” (SAMI LABS LIMITED, priority 2019, dated 2020)
